Results taken from PubChem BioAssay (NCI).
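A five-concentration, 48-hour dose response in 96-well plates underlies each endpoint, interpolated linearly between surrounding concentrations. GI50 is the concentration that inhibits growth by half. TGI marks complete inhibition of growth.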

Columns and labels:
Assay in all cases: growth of human tumour cells (NCI), 48 h
SNB-75 CNS = test system: SNB-75 CNS
MCF7 breast = test system: MCF7 breast
U251 CNS = test system: U251 CNS
NCI/ADR-RES ovarian = test system: NCI/ADR-RES ovarian
A549 NSCLC = test system: A549 NSCLC
NCI-H23 lung = test system: NCI-H23 lung
RXF 393 renal = test system: RXF 393 renal
EKVX NSCLC = test system: EKVX NSCLC
HCT-116 colon = test system: HCT-116 colon
NCI-H460 lung = test system: NCI-H460 lung
TK-10 renal = test system: TK-10 renal
UACC-257 melanoma = test system: UACC-257 melanoma
A498 renal = test system: A498 renal
M14 melanoma = test system: M14 melanoma
SR leukemia = test system: SR leukemia
OVCAR-4 ovarian = test system: OVCAR-4 ovarian
UO-31 renal = test system: UO-31 renal
T-47D breast = test system: T-47D breast
RPMI-8226 leukemia = test system: RPMI-8226 leukemia
UACC-62 melanoma = test system: UACC-62 melanoma
MDA-MB-231 breast = test system: MDA-MB-231 breast
SK-MEL-28 melanoma = test system: SK-MEL-28 melanoma
NCI-H226 lung = test system: NCI-H226 lung
HOP-62 NSCLC = test system: HOP-62 NSCLC
CCRF-CEM leukemia = test system: CCRF-CEM leukemia
OVCAR-5 ovarian = test system: OVCAR-5 ovarian
ACHN renal = test system: ACHN renal
SF-268 CNS = test system: SF-268 CNS
SW-620 colon = test system: SW-620 colon
SF-539 CNS = test system: SF-539 CNS
KM12 colon = test system: KM12 colon
SK-OV-3 ovarian = test system: SK-OV-3 ovarian
HT29 colon = test system: HT29 colon
SNB-19 CNS = test system: SNB-19 CNS
SN12C renal = test system: SN12C renal
HS 578T breast = test system: HS 578T breast
SK-MEL-5 melanoma = test system: SK-MEL-5 melanoma
DU-145 prostate = test system: DU-145 prostate
HOP-92 NSCLC = test system: HOP-92 NSCLC
HL-60(TB) leukemia = test system: HL-60(TB) leukemia
OVCAR-8 ovarian = test system: OVCAR-8 ovarian
MDA-MB-435 = test system: MDA-MB-435
MALME-3M melanoma = test system: MALME-3M melanoma
HCT-15 colon = test system: HCT-15 colon
MOLT-4 leukemia = test system: MOLT-4 leukemia
786-0 renal = test system: 786-0 renal
IGROV1 ovarian = test system: IGROV1 ovarian
HCC-2998 colon = test system: HCC-2998 colon
SF-295 CNS = test system: SF-295 CNS
LOX IMVI melanoma = test system: LOX IMVI melanoma
NCI-H522 lung = test system: NCI-H522 lung
CAKI-1 renal = test system: CAKI-1 renal
BT-549 breast = test system: BT-549 breast
SK-MEL-2 melanoma = test system: SK-MEL-2 melanoma
K-562 leukemia = test system: K-562 leukemia
COLO 205 colon = test system: COLO 205 colon
PC-3 prostate = test system: PC-3 prostate
OVCAR-3 ovarian = test system: OVCAR-3 ovarian

COc1ccccc1N1CCN(CCCNC(=O)c2cc(Cl)c(N)c(Cl)c2)CC1
TGI (SNB-75 CNS): > 100 µM
TGI (MCF7 breast): > 100 µM
TGI (U251 CNS): > 100 µM
TGI (NCI/ADR-RES ovarian): > 100 µM
TGI (A549 NSCLC): > 100 µM
TGI (NCI-H23 lung): > 100 µM
TGI (RXF 393 renal): 91 µM
TGI (EKVX NSCLC): > 100 µM
TGI (HCT-116 colon): > 100 µM
TGI (NCI-H460 lung): > 100 µM
TGI (TK-10 renal): > 100 µM
TGI (UACC-257 melanoma): 47.8 µM
TGI (A498 renal): > 100 µM
TGI (M14 melanoma): 53.1 µM
TGI (SR leukemia): 67.5 µM
TGI (OVCAR-4 ovarian): > 100 µM
TGI (UO-31 renal): 58.1 µM
TGI (T-47D breast): > 100 µM
TGI (RPMI-8226 leukemia): 54.5 µM
TGI (UACC-62 melanoma): > 100 µM
TGI (MDA-MB-231 breast): > 100 µM
TGI (SK-MEL-28 melanoma): > 100 µM
TGI (NCI-H226 lung): 98 µM
TGI (HOP-62 NSCLC): > 100 µM
TGI (CCRF-CEM leukemia): > 100 µM
TGI (OVCAR-5 ovarian): > 100 µM
TGI (ACHN renal): > 100 µM
TGI (SF-268 CNS): > 100 µM
TGI (SW-620 colon): > 100 µM
TGI (SF-539 CNS): > 100 µM
TGI (KM12 colon): > 100 µM
TGI (SK-OV-3 ovarian): > 100 µM
TGI (HT29 colon): > 100 µM
TGI (SNB-19 CNS): > 100 µM
TGI (SN12C renal): > 100 µM
TGI (HS 578T breast): > 100 µM
TGI (SK-MEL-5 melanoma): 33.2 µM
TGI (DU-145 prostate): > 100 µM
TGI (HOP-92 NSCLC): 31.4 µM
TGI (HL-60(TB) leukemia): 55.8 µM
TGI (OVCAR-8 ovarian): > 100 µM
TGI (MDA-MB-435): > 100 µM
TGI (MALME-3M melanoma): 37.7 µM
TGI (HCT-15 colon): > 100 µM
TGI (MOLT-4 leukemia): 92.6 µM
TGI (786-0 renal): > 100 µM
TGI (IGROV1 ovarian): > 100 µM
TGI (HCC-2998 colon): 41.6 µM
TGI (SF-295 CNS): 34.1 µM

COc1ccc(Cc2cnc(NC(=O)c3ccc4c(c3)OCCO4)s2)cc1
GI50 (LOX IMVI melanoma): 0.0456 µM
TGI (LOX IMVI melanoma): > 100 µM
GI50 (NCI-H522 lung): < 0.0125 µM
GI50 (SNB-75 CNS): 0.0192 µM
TGI (SNB-75 CNS): 44 µM
GI50 (MCF7 breast): 0.0307 µM
TGI (MCF7 breast): > 100 µM
GI50 (CAKI-1 renal): < 0.0123 µM
TGI (CAKI-1 renal): 15.6 µM
GI50 (U251 CNS): 0.0388 µM
TGI (U251 CNS): > 85.8 µM
GI50 (NCI/ADR-RES ovarian): 0.024 µM
TGI (NCI/ADR-RES ovarian): > 100 µM
GI50 (BT-549 breast): 0.0357 µM
TGI (BT-549 breast): > 49.5 µM
GI50 (A549 NSCLC): 0.044 µM
TGI (A549 NSCLC): > 100 µM
GI50 (NCI-H23 lung): 0.0537 µM
TGI (NCI-H23 lung): > 100 µM
GI50 (EKVX NSCLC): 0.0596 µM
TGI (EKVX NSCLC): > 100 µM
GI50 (HCT-116 colon): 0.032 µM
TGI (HCT-116 colon): > 38.8 µM
GI50 (NCI-H460 lung): 0.0344 µM
TGI (NCI-H460 lung): 26 µM
GI50 (SK-MEL-2 melanoma): 0.0545 µM
TGI (SK-MEL-2 melanoma): > 78.4 µM
GI50 (TK-10 renal): 0.406 µM
TGI (TK-10 renal): 35.3 µM
GI50 (UACC-257 melanoma): 4.83 µM
TGI (UACC-257 melanoma): > 100 µM
GI50 (A498 renal): 0.0159 µM
TGI (A498 renal): 0.0592 µM
GI50 (M14 melanoma): 0.0228 µM
TGI (M14 melanoma): 22.4 µM
GI50 (SR leukemia): 0.0114 µM
TGI (SR leukemia): > 100 µM
GI50 (K-562 leukemia): 0.0157 µM
TGI (K-562 leukemia): > 100 µM
GI50 (OVCAR-4 ovarian): 0.0836 µM
TGI (OVCAR-4 ovarian): > 100 µM
GI50 (COLO 205 colon): 0.0289 µM
TGI (COLO 205 colon): 0.319 µM
GI50 (UO-31 renal): 1.2 µM
TGI (UO-31 renal): > 100 µM
GI50 (T-47D breast): 2.95 µM
TGI (T-47D breast): > 100 µM
GI50 (RPMI-8226 leukemia): 0.0499 µM
TGI (RPMI-8226 leukemia): > 100 µM
GI50 (UACC-62 melanoma): 0.0292 µM
TGI (UACC-62 melanoma): 40.6 µM
GI50 (MDA-MB-231 breast): 0.0379 µM
TGI (MDA-MB-231 breast): 22.6 µM
GI50 (PC-3 prostate): 0.0303 µM
TGI (PC-3 prostate): > 100 µM
GI50 (SK-MEL-28 melanoma): 3.75 µM
TGI (SK-MEL-28 melanoma): > 83.8 µM
GI50 (NCI-H226 lung): 1.72 µM
TGI (NCI-H226 lung): 88.5 µM
GI50 (HOP-62 NSCLC): 0.0602 µM
TGI (HOP-62 NSCLC): > 100 µM
GI50 (CCRF-CEM leukemia): 0.0388 µM
TGI (CCRF-CEM leukemia): > 100 µM
GI50 (OVCAR-5 ovarian): 0.0866 µM
TGI (OVCAR-5 ovarian): > 72.6 µM
GI50 (ACHN renal): 0.0553 µM
TGI (ACHN renal): > 100 µM
GI50 (SF-268 CNS): 0.211 µM
TGI (SF-268 CNS): > 100 µM
GI50 (SW-620 colon): 0.0338 µM
TGI (SW-620 colon): > 100 µM
GI50 (SF-539 CNS): 0.0257 µM
TGI (SF-539 CNS): 0.714 µM
GI50 (KM12 colon): 0.0264 µM
TGI (KM12 colon): 11.1 µM
GI50 (SK-OV-3 ovarian): 0.0321 µM
TGI (SK-OV-3 ovarian): > 100 µM
GI50 (HT29 colon): 0.0418 µM
TGI (HT29 colon): > 55.4 µM
GI50 (SNB-19 CNS): 0.0523 µM
TGI (SNB-19 CNS): 43.2 µM
GI50 (SN12C renal): 0.0556 µM
TGI (SN12C renal): > 100 µM
GI50 (HS 578T breast): 0.0311 µM
TGI (HS 578T breast): > 76 µM
GI50 (SK-MEL-5 melanoma): 0.0268 µM
TGI (SK-MEL-5 melanoma): 0.168 µM
GI50 (DU-145 prostate): 0.037 µM
TGI (DU-145 prostate): > 41.1 µM
GI50 (HOP-92 NSCLC): 3.62 µM
TGI (HOP-92 NSCLC): > 76.6 µM
GI50 (HL-60(TB) leukemia): 0.0409 µM
TGI (HL-60(TB) leukemia): > 100 µM
GI50 (OVCAR-8 ovarian): 0.0426 µM
TGI (OVCAR-8 ovarian): > 100 µM
GI50 (OVCAR-3 ovarian): 0.0221 µM
TGI (OVCAR-3 ovarian): 0.0658 µM
GI50 (MALME-3M melanoma): 1.52 µM
TGI (MALME-3M melanoma): > 61.6 µM
GI50 (HCT-15 colon): 0.0167 µM
TGI (HCT-15 colon): > 100 µM
GI50 (MOLT-4 leukemia): 0.0504 µM
TGI (MOLT-4 leukemia): > 100 µM
GI50 (786-0 renal): 0.0493 µM
TGI (786-0 renal): > 74.3 µM
GI50 (IGROV1 ovarian): 0.0485 µM
TGI (IGROV1 ovarian): > 55.2 µM
GI50 (HCC-2998 colon): 0.038 µM
TGI (HCC-2998 colon): > 69.6 µM
GI50 (SF-295 CNS): 0.0242 µM
TGI (SF-295 CNS): 20.8 µM
